Data as given in patent US7842462B2, “Identification of substances that inhibit NEMO oligomerization” (Institut Pasteur, priority 2006, dated 2010).

Tested on: NEMO oligomerization (CFP-NEMO / YFP-NEMO)
Assay: FRET between CFP-NEMO and YFP-NEMO in lysates of doubly transfected Nemo-/- MEF cells
Type: cell-based, murine
Conditions: pECFP-Nemo and pEYFP-Nemo doubly transfected Nemo-/- MEF cells; 30 min incubation with IL-1β (10 ng/ml); excitation 433 nm
Protocol: Rat-1, M319-5b (see supplementary data), 5R fibroblast and wild type, Ikkα^−/−Ikkβ^−/− and Nemo^−/− MEF cells were grown in Dulbecco's modified Eagle's medium supplemented with 10% fetal bovine serum. For 5R cells, 20% 5R conditioned medium was added to fresh culture medium. Transfections using Fugene 6 (Roche) were performed according to the manufacturer protocol using, per well of a 6 well-plate, 2 μg of pECFP-Nemo or pEYFP-Nemo plasmid (single transfection) or 1 μg each (double transfection). For plasmid obtaining, see supplementary data. In NF-κB complementation assays 100 ng of pEF1-lacZ (marker for transfection efficiency) and Igκ-luciferase plasmids were added to the transfection mix. Cell fluorescence was controlled with an Axiovert 200 (Zeiss) inverted microscope one day after transfection.
Cells transfected with the lacZ and the Igκ-luciferase plasmids were trypsinated, pelleted and resuspended in fresh culture medium. Cell suspension was stimulated by IL-1β (BD, Biosciences, 10 ng/ml) or TNFα (BD Biosciences, 20 ng/ml) for 30 min at 37° C. […] Kinase activity in cytosolic extracts or glycerol gradient fractions was detected as described by Yamaoka, S., Courtois, G., Bessia, C., Whiteside, S. T., Weil, R., Agou, F., Kirk, H. E., Kay, R. J. and Israel, A. (1998) Complementation cloning of NEMO, a component of the IkappaB kinase (IKK) complex essential for NF-kappaB activation. […]

IL-1β: pro inflammatory cytokine (BD Biosciences) used as NF-κB pathway activating stimulus
FRET transfer efficiency between CFP and YFP: 21.7%
